Laboratory results reported in patent US11932658B2 (BRISTOL-MYERS SQUIBB COMPANY, priority 2016, dated 2024).

target: T1, protease-activated receptor type 4 (PAR4) (Homo sapiens, UniProt Q96RI0); test: not given; conditions: abstract of J. Med. Chem. 44(22):3746-3749 (2001); cited from earlier work
T1 sequence (Q96RI0 18-385): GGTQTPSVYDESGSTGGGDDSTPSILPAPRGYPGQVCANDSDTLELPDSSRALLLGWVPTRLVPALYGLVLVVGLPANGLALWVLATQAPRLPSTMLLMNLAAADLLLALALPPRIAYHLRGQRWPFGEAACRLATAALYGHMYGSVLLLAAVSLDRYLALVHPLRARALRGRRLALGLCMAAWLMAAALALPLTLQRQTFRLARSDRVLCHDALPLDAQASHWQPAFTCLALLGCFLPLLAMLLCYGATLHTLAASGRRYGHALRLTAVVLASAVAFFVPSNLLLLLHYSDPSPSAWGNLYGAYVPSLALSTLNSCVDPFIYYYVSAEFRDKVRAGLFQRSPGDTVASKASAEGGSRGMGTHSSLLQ

| Molecule | Inhibition of PAR4-dependent platelet activation |
| --- | --- |
| CCOC(=O)c1ccc(-c2nn(Cc3ccccc3)c3ccccc23)cc1 [YD-3, ethyl 4-(1-benzyl-1H-indazol-3-yl)benzoate] | selective and potent inhibitor |

system: washed platelets; test: not given; conditions: not given
Method: Human blood was collected in ACD (85 mM tri-sodium citrate, 78 mM citric acid, 110 mM D-glucose, pH 4.4) at a ratio of 1.4 ml per 10 ml blood. PRP was isolated by centrifugation at 170 g for 14 minutes and platelets were further pelleted by centrifugation at 1300 g for 6 minutes. Platelets were washed once with 10 ml ACD containing 1 mg/ml bovine serum albumin. Platelets were resuspended at ˜2.5×10^8/ml in Tyrode's Buffer (137 mM NaCl, 2 mM KCl, 1.0 mM MgCl2, 1 mM CaCl2), 5 mM glucose, 20 mM HEPES pH 7.4).

| Molecule | EC50 [nM] |
| --- | --- |
| C[C@H](N)C(=O)N[C@@H](Cc1ccc(O)cc1)C(=O)N1CCC[C@H]1C(=O)NCC(=O)N[C@@H](CCCCN)C(=O)N[C@@H](Cc1ccccc1)C(=O)O [AYPGKF] | 12000 |

target: T2, PAR4 (Homo sapiens, UniProt Q96RI0); test: PAR4 FLIPR assay (antagonism of agonist peptide-induced calcium mobilization); format: cell-based; conditions: not given
T2 construct: expressed in transfected cells; host or cells: HEK293 PAR4 Clone 1.2A (BMS Arctic ID 383940)
T2 sequence (Q96RI0 18-385): T1 sequence (Q96RI0 18-385)
Summary of the method: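 Antagonism was taken as block of calcium mobilization evoked by the agonist peptide H-Ala-Phe(4-F)-Pro-Gly-Trp-Leu-Val-Lys-Asn-[…]-NH2, added after 30 min room-temperature compound preincubation in dye-loaded PAR4-transfected HEK293 cells (endogenous PAR1). Fluorescence was read on FDSS, with compound addition alone used as the agonist counter-screen; values come from 11-point concentration-response curves.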

| Molecule | IC50 [nM] |
| --- | --- |
| COc1cnc2c(-c3nc4ccc5c(c4s3)OC[C@H](COC(=O)Nc3cnc(C)nc3)O5)cc(CF)cc2c1 [Example 276, (R)-(2-(6-(fluoromethyl)-3-methoxyquinolin-8-yl)-7,8-dihydro-[1,4]dioxino[2′,3′:3,4]benzo[1,2-d]thiazol-7-yl)methyl (2-methylpyrimidin-5-yl)carbamate] | 140 |
| COc1cnc2c(-c3nc4c(C(O)C5(C)CCCCC5)cc5c(c4s3)OCCO5)cc(C)cc2n1 (centres unmarked) [Example 278, (2-(2-methoxy-7-methylquinoxalin-5-yl)-7,8-dihydro-[1,4]dioxino[2′,3′:3,4]benzo[1,2-d]thiazol-4-yl)(1-methylcyclohexyl)methanol] | 19 |
| COc1cnc2c(-c3nc4c(C(O)C5(C(F)(F)F)CC5)cc5c(c4s3)OCCO5)cc(C)cc2n1 (centres unmarked) [Example 279, (2-(2-methoxy-7-methylquinoxalin-5-yl)-7,8-dihydro-[1,4]dioxino[2′,3′:3,4]benzo[1,2-d]thiazol-4-yl)(1-(trifluoromethyl)cyclopropyl)methanol] | 9.1 |
| COc1cnc2c(-c3nc4cc(F)c5c(c4s3)C[C@H](COC(=O)Nc3cnc(C)nc3)O5)cc(F)cc2c1 [Example 280, (R)-(5-fluoro-2-(6-fluoro-3-methoxyquinolin-8-yl)-7,8-dihydrobenzofuro[5,4-d]thiazol-7-yl)methyl (2-methylpyrimidin-5-yl)carbamate] | 2.4 |
| COc1cnc2c(-c3nc4ccc5c(c4s3)OC[C@H](COC(=O)Nc3cnc(C)nc3)O5)cc(F)cc2c1 [Example 281, (R)-(2-(6-fluoro-3-methoxyquinolin-8-yl)-7,8-dihydro-[1,4]dioxino[2′,3′:3,4]benzo[1,2-d]thiazol-7-yl)methyl (2-methylpyrimidin-5-yl)carbamate] | 9 |
| COc1cnc2c(-c3nc4cc(F)c5c(c4s3)C[C@H](CO)O5)cc(Cl)cc2c1 [Example 282, (R)-(2-(6-chloro-3-methoxyquinolin-8-yl)-5-fluoro-7,8-dihydrobenzofuro[5,4-d]thiazol-7-yl)methanol] | 36 |
| COc1cnc2c(-c3nc4cc(F)c5c(c4s3)C[C@H](COC(=O)Nc3cccnc3)O5)cc(Cl)cc2c1 [Example 283, (R)-(2-(6-chloro-3-methoxyquinolin-8-yl)-5-fluoro-7,8-dihydrobenzofuro[5,4-d]thiazol-7-yl)methyl pyridin-3-ylcarbamate] | 2.2 |
| COc1cnc2c(-c3nc4cc(F)c5c(c4s3)C[C@H](COC(=O)Nc3cccc(C(N)=O)c3)O5)cc(Cl)cc2c1 [Example 284, (R)-(2-(6-chloro-3-methoxyquinolin-8-yl)-5-fluoro-7,8-dihydrobenzofuro[5,4-d]thiazol-7-yl)methyl (3-carbamoylphenyl)carbamate] | 2.8 |
| COc1cnc2c(-c3nc4cc(F)c5c(c4s3)C[C@@](C)(CO)O5)cc(Cl)cc2c1 [Example 285, (S)-(2-(6-chloro-3-methoxyquinolin-8-yl)-5-fluoro-7-methyl-7,8-dihydrobenzofuro[5,4-d]thiazol-7-yl)methanol] | 1.5 |
| COc1cnc2c(-c3nc4cc(F)c5c(c4s3)C[C@](C)(COC(=O)Nc3cnc(OCCO)nc3)O5)cc(Cl)cc2c1 [Example 286, (R)-(2-(6-chloro-3-methoxyquinolin-8-yl)-5-fluoro-7-methyl-7,8-dihydrobenzofuro[5,4-d]thiazol-7-yl)methyl (2-(2-hydroxyethoxy)pyrimidin-5-yl)carbamate] | 1 |
| COc1cnc2c(-c3nc4ccc5c(c4s3)OC[C@H](COC(=O)Nc3cnc(OCCO)nc3)O5)cc(Cl)cc2c1 [Example 287, (R)-(2-(6-chloro-3-methoxyquinolin-8-yl)-7,8-dihydro-[1,4]dioxino[2′,3′:3,4]benzo[1,2-d]thiazol-7-yl)methyl (2-(2-hydroxyethoxy)pyrimidin-5-yl)carbamate] | 1.6 |
| COc1cnc2c(-c3nc4ccc5c(c4s3)OC[C@H](COC(=O)Nc3cnc(OC[C@H](C)O)nc3)O5)cc(Cl)cc2c1 [Example 288, ((R)-2-(6-chloro-3-methoxyquinolin-8-yl)-7,8-dihydro-[1,4]dioxino[2′,3′:3,4]benzo[1,2-d]thiazol-7-yl)methyl (2-((S)-2-hydroxypropoxy)pyrimidin-5-yl)carbamate] | 2.2 |
| COc1cnc2c(-c3nc4ccc5c(c4s3)OC[C@H](COC(=O)Nc3cnc(OC[C@@H](C)O)nc3)O5)cc(Cl)cc2c1 [Example 289, ((R)-2-(6-chloro-3-methoxyquinolin-8-yl)-7,8-dihydro-[1,4]dioxino[2′,3′:3,4]benzo[1,2-d]thiazol-7-yl)methyl (2-((R)-2-hydroxypropoxy)pyrimidin-5-yl)carbamate] | 1.8 |
| COc1cnc2c(-c3nc4cc(F)c5c(c4s3)[C@H](C)[C@@H](CO)O5)cc(Cl)cc2c1 [Example 290, ((7S,8S)-2-(6-chloro-3-methoxyquinolin-8-yl)-5-fluoro-8-methyl-7,8-dihydrobenzofuro[5,4-d]thiazol-7-yl)methanol] | 0.8 |
| COc1cnc2c(-c3nc4cc(F)c5c(c4s3)OC[C@H](CO)O5)cc(C)cc2n1 [Example 291, (S)-(5-fluoro-2-(2-methoxy-7-methylquinoxalin-5-yl)-7,8-dihydro-[1,4]dioxino[2′,3′:3,4]benzo[1,2-d]thiazol-7-yl)methanol] | 59 |

same assay, conditions: PAR4-expressing HEK293 cells; calcium mobilization induced by H-Ala-Phe(4-F)-Pro-Gly-Trp-Leu-Val-Lys-Asn-Gly-NH2; 11-point concentration-response curves

| Molecule | IC50 [nM] |
| --- | --- |
| (S)-5-fluoro-2-(2-methoxy-7-methylquinoxalin-5-yl)-7-(((2-methylpyrimidin-5-yl)oxy)m ethyl)-7,8-dihydro-[1,4]dioxino[2′,3′:3,4]benzo[1,2-d]thiazole [Example 292] | 1.1 |

target: T3, PAR1 (Homo sapiens, UniProt P25116); test: not given; conditions: ACS patients, TRACER phase III trial; cited from earlier work
T3 construct: in the TRACER phase III trial in ACS patients; host or cells: ACS patients (clinical trial)
T3 sequence (P25116 22-425): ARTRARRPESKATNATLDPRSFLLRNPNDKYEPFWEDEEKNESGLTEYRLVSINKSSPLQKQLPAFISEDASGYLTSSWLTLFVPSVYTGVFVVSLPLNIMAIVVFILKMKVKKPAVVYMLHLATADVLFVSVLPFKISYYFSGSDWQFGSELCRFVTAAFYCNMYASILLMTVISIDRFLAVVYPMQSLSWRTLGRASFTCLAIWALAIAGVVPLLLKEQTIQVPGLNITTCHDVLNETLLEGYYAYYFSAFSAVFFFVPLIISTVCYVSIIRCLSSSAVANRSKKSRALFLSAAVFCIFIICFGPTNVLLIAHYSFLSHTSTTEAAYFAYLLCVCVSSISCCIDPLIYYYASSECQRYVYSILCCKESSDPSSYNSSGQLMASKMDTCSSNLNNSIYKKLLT

| Molecule | Cardiovascular events | Risk of major bleeding |
| --- | --- | --- |
| CCOC(=O)N[C@@H]1CC[C@@H]2[C@@H](C1)C[C@H]1C(=O)O[C@H](C)[C@H]1[C@H]2/C=C/c1ccc(-c2cccc(F)c2)cn1 [vorapaxar] | did not significantly reduce | significantly increased |
